The values below come from PubChem BioAssay AID248 (DTP/NCI, 2004).

Values joined by “and” are separate entries in the source; they are usually repeats but may differ in a detail not shown here. Identical values can stand only once. Toxic doses and inconclusive results are not listed.

The experiment has as its system L1210 leukemia ip in BDF1 mice, survival T/C. The experiment can be described thus: NCI In Vivo Anticancer Drug Screen. Data for tumor model L1210 Leukemia (intraperitoneal) in B6D2F1 (BDF1) mice. The conditions noted are these: endpoint: mean survival time, higher = longer survival. In a few lines:
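Each compound was tested against a transplantable tumor grown in mice. The endpoint was survival, with treated animals benchmarked against vehicle controls as a simple ratio.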

The mark [1] stands for this setting: dose: 100.0 mg/kg/injection, schedule: Q01DX001 (ip), vehicle: Klucel (hydroxypropylcellulose) (HPC).
Where [2] appears, read: dose: 100.0 mg/kg/injection, schedule: Q04DX003 (ip), vehicle: Klucel (hydroxypropylcellulose) (HPC).
Setting [3] is: dose: 200.0 mg/kg/injection, schedule: Q01DX001 (ip), vehicle: Klucel (hydroxypropylcellulose) (HPC).
Where [4] appears, read: dose: 200.0 mg/kg/injection, schedule: Q04DX003 (ip), vehicle: Klucel (hydroxypropylcellulose) (HPC).
[5] abbreviates: dose: 400.0 mg/kg/injection, schedule: Q01DX001 (ip), vehicle: Klucel (hydroxypropylcellulose) (HPC).
Setting [6] is: dose: 400.0 mg/kg/injection, schedule: Q04DX003 (ip), vehicle: Klucel (hydroxypropylcellulose) (HPC).
Where [7] appears, read: dose: 100.0 mg/kg/injection, schedule: Q01DX009 (ip), vehicle: saline.
Where [8] appears, read: dose: 200.0 mg/kg/injection, schedule: Q01DX009 (ip), vehicle: saline.
Where [9] appears, read: dose: 400.0 mg/kg/injection, schedule: Q01DX009 (ip), vehicle: saline.
[10] abbreviates: dose: 100.0 mg/kg/injection, schedule: Q04DX002 (ip), vehicle: Klucel (hydroxypropylcellulose) (HPC).
Setting [11] is: dose: 200.0 mg/kg/injection, schedule: Q04DX002 (ip), vehicle: Klucel (hydroxypropylcellulose) (HPC).
The mark [12] stands for this setting: dose: 400.0 mg/kg/injection, schedule: Q04DX002 (ip), vehicle: Klucel (hydroxypropylcellulose) (HPC).
[13] abbreviates: dose: 100.0 mg/kg/injection, schedule: Q04DX003 (ip), vehicle: saline.
Setting [14] is: dose: 200.0 mg/kg/injection, schedule: Q04DX003 (ip), vehicle: saline.
Where [15] appears, read: dose: 400.0 mg/kg/injection, schedule: Q04DX003 (ip), vehicle: saline.

Take `Cc1ccc2c(CCCC(=O)O)c(C)c(=O)oc2c1`: the T/C by setting is: under setting [1], 98 % of control; under setting [2], 103 % of control; under setting [3], 98 % of control; under setting [4], 96 % of control; under setting [5], 100 % of control; under setting [6], 88 % of control.
For the molecule `Cc1ccc(NC(=O)OCCOc2ccc(Cl)cc2Cl)cc1[N+](=O)[O-]`, the T/C reads like this: (dose: 50.0 mg/kg/injection, schedule: Q01DX009 (ip), vehicle: saline with Tween-80) 97 % of control; (dose: 100.0 mg/kg/injection, schedule: Q01DX009 (ip), vehicle: saline with Tween-80) 104 % of control; (dose: 200.0 mg/kg/injection, schedule: Q01DX009 (ip), vehicle: saline with Tween-80) 104 % of control.
With `OCCC#CCCCO`, the T/C reads like this: under setting [7], 93 % of control; under setting [8], 92 % of control; under setting [9], 88 % of control.
For the molecule `N#Cc1nc2c(n(O)c1=N)CCC/C2=C\c1ccc(Cl)c(Cl)c1`, the T/C under setting [10] is 99 % of control, the T/C under setting [11] is 89 % of control and the T/C under setting [12] is 92 % of control.
Turning to `COc1cc(C=Nc2cc(Cl)c(O)c(Cl)c2)ccc1N(CCCl)CCCl`, the T/C is, setting by setting: (dose: 1.4 mg/kg/injection, schedule: Q01DX009 (ip), vehicle: carboxymethylcellulose (CMC)) 113 % of control; (dose: 2.1 mg/kg/injection, schedule: Q01DX009 (ip), vehicle: carboxymethylcellulose (CMC)) 105 % of control; (dose: 5.3 mg/kg/injection, schedule: Q01DX009 (ip), vehicle: carboxymethylcellulose (CMC)) 112 % of control; (dose: 10.0 mg/kg/injection, schedule: Q01DX009 (ip), vehicle: carboxymethylcellulose (CMC)) 171 % of control; (dose: 11.1 mg/kg/injection, schedule: Q01DX001 (ip), vehicle: carboxymethylcellulose (CMC)) 122 % of control; (dose: 12.0 mg/kg/injection, schedule: Q01DX009 (ip), vehicle: carboxymethylcellulose (CMC)) 110 % of control. The T/C is, setting by setting: (dose: 16.6 mg/kg/injection, schedule: Q01DX001 (ip), vehicle: carboxymethylcellulose (CMC)) 116 % of control and 123 % of control; (dose: 18.0 mg/kg/injection, schedule: Q01DX009 (ip), vehicle: carboxymethylcellulose (CMC)) 88 % of control; (dose: 25.0 mg/kg/injection, schedule: Q01DX001 (ip), vehicle: carboxymethylcellulose (CMC)) 122 % of control.
Consider `CC1CCC2C1C1C(CCC2(C)O)C1(C)C` (stereo unspecified), for which the T/C by setting is: (dose: 100.0 mg/kg/injection, schedule: Q01DX009 (ip), vehicle: other) 90 % of control; (dose: 100.0 mg/kg/injection, schedule: Q04DX003 (ip), vehicle: saline sonified) 103 % of control; (dose: 200.0 mg/kg/injection, schedule: Q01DX009 (ip), vehicle: other) 95 % of control; (dose: 200.0 mg/kg/injection, schedule: Q04DX003 (ip), vehicle: saline sonified) 103 % of control; (dose: 400.0 mg/kg/injection, schedule: Q01DX009 (ip), vehicle: other) 98 % of control; (dose: 400.0 mg/kg/injection, schedule: Q04DX003 (ip), vehicle: saline sonified) 102 % of control.
As for `CCCCCCCCCCCC(=O)NC(=S)Nc1cccc(O)c1`, the T/C reads like this: under setting [10], 104 % of control; under setting [11], 87 % of control; under setting [12], 104 % of control.
`CCCCOc1ccccc1NC(=O)CCl`: the T/C under setting [13] is 100 % of control, the T/C under setting [14] is 100 % of control and the T/C under setting [15] was 93 % of control.
`CC(C)(C)C1CCC(NC(=O)c2ccccc2)CC1` (stereo unspecified): the T/C reads like this: (dose: 100.0 mg/kg/injection, schedule: Q01DX009 (ip), vehicle: Klucel (hydroxypropylcellulose) (HPC)) 108 % of control; under setting [2], 102 % of control; (dose: 200.0 mg/kg/injection, schedule: Q01DX009 (ip), vehicle: Klucel (hydroxypropylcellulose) (HPC)) 109 % of control; under setting [4], 98 % of control; (dose: 400.0 mg/kg/injection, schedule: Q01DX009 (ip), vehicle: Klucel (hydroxypropylcellulose) (HPC)) 86 % of control; under setting [6], 100 % of control.
Turning to `CC(C)(C)C[CH2][Hg][Cl]`, the T/C is, setting by setting: (dose: 6.25 mg/kg/injection, schedule: Q04DX003 (ip), vehicle: Klucel (hydroxypropylcellulose) (HPC)) 92 % of control; (dose: 12.5 mg/kg/injection, schedule: Q04DX003 (ip), vehicle: Klucel (hydroxypropylcellulose) (HPC)) 94 % of control.
On to `CS(=O)(=O)O/C=C1/CCOC1=O`, for which the T/C is 105 % of control (dose: 12.5 mg/kg/injection, schedule: Q01DX009 (ip), vehicle: water) and 106 % of control (dose: 25.0 mg/kg/injection, schedule: Q01DX009 (ip), vehicle: water).
For `CCC(Cl)COP(=O)(OCC(Cl)CC)C(OP(=S)(OCC(Cl)CC)OCC(Cl)CC)C(C)C` (stereo unspecified), the T/C (dose: 50.0 mg/kg/injection, schedule: Q04DX002 (sc), vehicle: olive oil, sesame oil, peanut oil) was 104 % of control; the T/C (dose: 100.0 mg/kg/injection, schedule: Q04DX002 (sc), vehicle: olive oil, sesame oil, peanut oil) was 118 % of control; the T/C (dose: 200.0 mg/kg/injection, schedule: Q04DX002 (sc), vehicle: olive oil, sesame oil, peanut oil) is 110 % of control.
`COC1OC(CI)C(OC(=O)c2ccccc2)C(OC(=O)c2ccccc2)C1OC(=O)c1ccccc1` (stereo unspecified): the T/C runs as follows: under setting [10], 101 % of control; under setting [11], 93 % of control; under setting [12], 121 % of control.
For `COc1cc2c(c(Oc3ccc(C)cc3)c1)CN(C)CC2`, the T/C under setting [13] was 98 % of control.
In the case of `NC(C(=O)O)C(CC(=O)O)C(=O)O` (stereo unspecified), the T/C is, setting by setting: under setting [13], 93 % of control; under setting [14], 95 % of control; under setting [15], 98 % of control.
For the molecule `CC(=O)c1ccc(N=Nc2c(N)nc(N)[nH]c2=O)cc1`, the T/C was 101 % of control (dose: 100.0 mg/kg/injection, schedule: Q01DX001 (ip), vehicle: carboxymethylcellulose (CMC)); 106 % of control (dose: 200.0 mg/kg/injection, schedule: Q01DX001 (ip), vehicle: carboxymethylcellulose (CMC)); 119 % of control (dose: 400.0 mg/kg/injection, schedule: Q01DX001 (ip), vehicle: carboxymethylcellulose (CMC)).
For `Cc1ccccc1SC(Sc1ccccc1C)(Sc1ccccc1C)Sc1ccccc1C`, the T/C runs as follows: under setting [1], 98 % of control; under setting [3], 88 % of control; under setting [5], 95 % of control.
As to `O=C1c2cccc(O)c2C(=O)c2c(O)cccc21`, the T/C under setting [7] is 94 % of control; the T/C under setting [13] was 93 % of control; the T/C under setting [8] was 97 % of control; the T/C under setting [14] was 97 % of control; the T/C under setting [9] is 103 % of control; the T/C under setting [15] was 97 % of control.
Regarding `O=C(O)/C=C\C(=O)Nc1nc(NC(=O)/C=C/C(=O)O)cc(=O)[nH]1`, the T/C is, setting by setting: (dose: 100.0 mg/kg/injection, schedule: Q01DX001 (ip), vehicle: saline) 97 % of control; (dose: 200.0 mg/kg/injection, schedule: Q01DX001 (ip), vehicle: saline) 100 % of control; (dose: 400.0 mg/kg/injection, schedule: Q01DX001 (ip), vehicle: saline) 103 % of control.
